This passage reports EC50 results from patent US20110052534A1, “Imidazopyridazine Compounds for Treating Viral Infections” (priority 2009, published 2011).

Experiment [1] deals with HCV genotype 1b replicon (ET replicon). In words: microbe, parasite or virus in culture. It counts as cell-based. The settings on record: Hepatitis C virus. An excerpt: (§1) Two cell lines were used for screening of compounds for inhibiting HCV RNA replication (genoytype 1a and 1b). Genotype la replicon cells, are a Huh-7 derived cell line bearing the genotype 1a H77NS3-5B bicistronic subgenomic replicon. See, Blight, et al., J. Virol. (2003) 77(5): 3181-3190.
(§2) The genotype 1a replicon contains several adaptive mutations (NS4B Q31H, NS5A K68R, NS5A S232I), the luciferase gene and encodes for neomycin resistance. The genotype 1b replicon, also referred to as the ET replicon, is stably transfected with RNA transcripts harboring a I389luc-ubi-neo/NS3-3′/ET replicon with firefly luciferase-ubiquitin-neomycin phosphotransferase fusion protein and EMCV-IRES driven NS3-5B polyprotein containing the cell culture adaptive mutations (E1202G; T12801; K1846T) See, Kreiger, et al., Journal of Virology 75:4614-4624 (2001). Both cell lines were grown in DMEM, supplemented with 10% fetal calf serum, 2 mM Glutamine, Penicillin (100 IU/mL)/Streptomycin (100 μg/mL), 1×nonessential amino acids, and 250 μg/mL G418 (“Geneticin”). They were all available through Life Technologies (Bethesda, Md.). The cells were plated at 0.5×10^4 cells/well in 384 well plates containing compounds. The final concentration of compounds ranged between 0.1 nM to 50 μM and the final DMSO concentration of 0.5%.
(§3) Luciferase activity was measured 48 hours later by adding a Steady glo (Promega, Madison, Wis.). Percent inhibition of replication data was plotted relative to no compound control. Under the same condition, cytotoxicity of the compounds was determined using cell titer glo (Promega, Madison, Wis.). EC50 values were determined from a 10 point dose response curve using 2-4 fold serial dilutions for each compound, which spans a concentration range of at least a 1000 fold. Replicon EC50 values, the concentration of compound required to inhibit 50% of the assay response, were calculated by curve fitting data to the Hill equation, using a non-linear least-squares curve-fitting program. The software tested the data for quality and rejected compounds with high and low activity before fitting the equation below.
(§4) Analysis was performed using an XC50 module and BioAssay Enterprise (Cambridge Soft).

Experiment [2] concerns HCV genotype 1a H77 NS3-5B bicistronic subgenomic replicon. In words: microbe, parasite or virus in culture. It counts as cell-based. The settings on record: Hepatitis C virus.
From the text: as §1, §2, §3, §4

Where [3] appears, read: Table 2, luciferase activity after 48 hours, read-out: HCV Genotype 1B Replicon EC50.
The mark [4] stands for this setting: Table 2, luciferase activity after 48 hours, read-out: HCV Genotype 1A Replicon EC50.

SMILES strings stand for the structures. Where a name gives a salt, the structure may show the parent alone. Read-outs that look alike come from different tables or passages of the source.

In the case of `CCCOc1ccc(-c2cc(C(C(=O)OC)n3cc4nc(-c5cccc(F)c5F)nc-4cn3)on2)c(C(F)(F)F)c1` (stereo not drawn) [Compound 1, Methyl [2-(2,3-difluorophenyl)-5H-imidazo[4,5-d]pyridazin-5-yl]{3-[4-(propyloxy)-2-(trifluoromethyl)phenyl]-5-isoxazolyl}acetate], the EC50 in experiment [1] (setting [3]) was found to be 3 nM; in experiment [2] (setting [4]), 17 nM. As to `CCCOc1ccc(-c2cc(C(C(=O)OCC)n3cc4nc(-c5cccc(F)c5F)nc-4cn3)on2)c(C(F)(F)F)c1` (stereo not drawn) [Compound 2, Ethyl [2-(2,3-difluorophenyl)-5H-imidazo[4,5-d]pyridazin-5-yl]{3-[4-(propyloxy)-2-(trifluoromethyl)phenyl]-5-isoxazolyl}acetate], the EC50 is 4 nM in experiment [1] (setting [3]) and 12 nM in experiment [2] (setting [4]).

For `CCCOC(=O)C(c1cc(-c2ccc(OCCC)cc2C(F)(F)F)no1)n1cc2nc(-c3cccc(F)c3F)nc-2cn1` (stereo not drawn) [Compound 3, Propyl [2-(2,3-difluorophenyl)-5H-imidazo[4,5-d]pyridazin-5-yl]{3-[4-(propyloxy)-2-(trifluoromethyl)phenyl]-5-isoxazolyl}acetate], the EC50 was 5 nM in experiment [1] (setting [3]) and 20 nM in experiment [2] (setting [4]). For `CCCOc1ccc(-c2cc(C(C(=O)OC(C)C)n3cc4nc(-c5cccc(F)c5F)nc-4cn3)on2)c(C(F)(F)F)c1` (stereo not drawn) [Compound 4, 1-Methylethyl [2-(2,3-difluorophenyl)-5H-imidazo[4,5-d]pyridazin-5-yl]{3-[4-(propyloxy)-2-(trifluoromethyl)phenyl]-5-isoxazolyl}acetate], in that order: 10 nM and 30 nM. Turning to `CCCOc1ccc(-c2cc(C(C(=O)OCCCO)n3cc4nc(-c5cccc(F)c5F)nc-4cn3)on2)c(C(F)(F)F)c1` (stereo not drawn) [Compound 5, 3-Hydroxypropyl [2-(2,3-difluorophenyl)-5H-imidazo[4,5-d]pyridazin-5-yl]{3-[4-(propyloxy)-2-(trifluoromethyl)phenyl]-5-isoxazolyl}acetate], the concentration giving a half-maximal response (EC50) came out at 6 nM in experiment [1] (setting [3]) and 24 nM in experiment [2] (setting [4]). Consider `CCCOc1ccc(-c2cc(C(C(=O)OC(C)(C)C)n3cc4nc(-c5cccc(F)c5F)nc-4cn3)on2)c(C(F)(F)F)c1` (stereo not drawn) [Compound 6, 1,1-Dimethylethyl [2-(2,3-difluorophenyl)-5H-imidazo[4,5-d]pyridazin-5-yl]{3-[4-(propyloxy)-2-(trifluoromethyl)phenyl]-5-isoxazolyl}acetate], for which the EC50 in experiment [1] (setting [3]) was 16 nM; in experiment [2] (setting [4]), 65 nM. For `CCCCOC(=O)C(c1cc(-c2ccc(OCCC)cc2C(F)(F)F)no1)n1cc2nc(-c3cccc(F)c3F)nc-2cn1` (stereo not drawn) [Compound 7, Butyl [2-(2,3-difluorophenyl)-5H-imidazo[4,5-d]pyridazin-5-yl]{3-[4-(propyloxy)-2-(trifluoromethyl)phenyl]-5-isoxazolyl}acetate], in that order: 5 nM and 11 nM. On to `CCCOc1ccc(-c2cc(C(C(=O)OCCOCCO)n3cc4nc(-c5cccc(F)c5F)nc-4cn3)on2)c(C(F)(F)F)c1` (stereo not drawn) [Compound 8, 2-[(2-Hydroxyethyl)oxy]ethyl [2-(2,3-difluorophenyl)-5H-imidazo[4,5-d]pyridazin-5-yl]{3-[4-(propyloxy)-2-(trifluoromethyl)phenyl]-5-isoxazolyl}acetate], for which the EC50 in experiment [1] (setting [3]) came to 3 nM; in experiment [2] (setting [4]), 7 nM. For `CCCOc1ccc(-c2cc(C(C(=O)OCCOCCOC)n3cc4nc(-c5cccc(F)c5F)nc-4cn3)on2)c(C(F)(F)F)c1` (stereo not drawn) [Compound 9, 2-{[2-(Methyloxy)ethyl]oxy}ethyl [2-(2,3-difluorophenyl)-5H-imidazo[4,5-d]pyridazin-5-yl]{3-[4-(propyloxy)-2-(trifluoromethyl)phenyl]-5-isoxazolyl}acetate], the EC50 came to 4 nM in experiment [1] (setting [3]) and 2 nM in experiment [2] (setting [4]). As for `CCCOc1ccc(-c2cc(C(C(=O)OCCOCCOCCO)n3cc4nc(-c5cccc(F)c5F)nc-4cn3)on2)c(C(F)(F)F)c1` (stereo not drawn) [Compound 11, 2-({2-[(2-Hydroxyethyl)oxy]ethyl}oxy)ethyl [2-(2,3-difluorophenyl)-5H-imidazo[4,5-d]pyridazin-5-yl]{3-[4-(propyloxy)-2-(trifluoromethyl)phenyl]-5-isoxazolyl}acetate], the figures for the concentration giving a half-maximal response (EC50) in experiment [1] (setting [3]) and in experiment [2] (setting [4]) were 3 nM and 21 nM, respectively. As to `CCCOc1ccc(-c2cc(C(C(=O)OCCOCCOCCOCCO)n3cc4nc(-c5cccc(F)c5F)nc-4cn3)on2)c(C(F)(F)F)c1` (stereo not drawn) [Compound 12, 2-{[2-({2-[(2-Hydroxyethyl)oxy]ethyl}oxy)ethyl]oxy}ethyl [2-(2,3-difluorophenyl)-5H-imidazo[4,5-d]pyridazin-5-yl]{3-[4-(propyloxy)-2-(trifluoromethyl)phenyl]-5-isoxazolyl}acetate], the 50% effective concentration (EC50) in experiment [1] (setting [3]) is 1 nM; in experiment [2] (setting [4]) it was 17 nM. Consider `CCCOc1ccc(-c2cc(C(C(=O)OCCCOP(=O)(O)O)n3cc4nc(-c5cccc(F)c5F)nc-4cn3)on2)c(C(F)(F)F)c1` (stereo not drawn) [Compound 14, 3-(Phosphonooxy)propyl [2-(2,3-difluorophenyl)-5H-imidazo[4,5-d]pyridazin-5-yl]{3-[4-(propyloxy)-2-(trifluoromethyl)phenyl]-5-isoxazolyl}acetate mono sodium salt], for which the half-maximal effective concentration (EC50) in experiment [1] (48 h, read-out: HCV Genotype 1B Replicon EC50 (nM)) amounted to 3 nM; in experiment [2] (48 h, read-out: HCV Genotype 1A Replicon EC50 (nM)), 42 nM.

As for `CCCOc1ccc(-c2cc(C(C(=O)OCCCOS(=O)(=O)O)n3cc4nc(-c5cccc(F)c5F)nc-4cn3)on2)c(C(F)(F)F)c1` (stereo not drawn) [Compound 15, 3-(Sulfooxy)propyl [2-(2,3-difluorophenyl)-5H-imidazo[4,5-d]pyridazin-5-yl]{3-[4-(propyloxy)-2-(trifluoromethyl)phenyl]-5-isoxazolyl}acetate sodium salt], the 50% effective concentration (EC50) was determined as 2 nM in experiment [1] (setting [3]) and 14 nM in experiment [2] (setting [4]). Take `CCCOc1ccc(-c2cc(C(C(=O)OCCC(=O)O)n3cc4nc(-c5cccc(F)c5F)nc-4cn3)on2)c(C(F)(F)F)c1` (stereo not drawn) [Compound 16, 3-[([2-(2,3-Difluorophenyl)-5H-imidazo[4,5-d]pyridazin-5-yl]{3-[4-(propyloxy)-2-(trifluoromethyl)phenyl]-5-isoxazolyl}acetyl)oxy]propanoic acid sodium salt]: the EC50 in experiment [1] (setting [3]) was 3 nM; in experiment [2] (setting [4]), 32 nM. Take `CCCOc1ccc(-c2cc(C(C(=O)NC)n3cc4nc(-c5cccc(F)c5F)nc-4cn3)on2)c(C(F)(F)F)c1` (stereo not drawn) [Compound 20, 2-[2-(2,3-Difluorophenyl)-5H-imidazo[4,5-d]pyridazin-5-yl]-N-methyl-2-{3-[4-(propyloxy)-2-(trifluoromethyl)phenyl]-5-isoxazolyl}acetamide]: the concentration for a half-maximal effect (EC50) in experiment [1] (setting [3]) stood at 65 nM; in experiment [2] (setting [4]), 920 nM. Consider `CCCOc1ccc(-c2ccc(C(C(=O)OC)n3cc4nc(-c5cccc(F)c5F)nc-4cn3)cn2)c(C(F)(F)F)c1` (stereo not drawn) [Compound 39, Methyl [2-(2,3-difluorophenyl)-5H-imidazo[4,5-d]pyridazin-5-yl]{6-[4-(propyloxy)-2-(trifluoromethyl)phenyl]-3-pyridinyl}acetate], for which the results for the EC50 in experiment [1] (setting [3]) and in experiment [2] (setting [4]) were 800 nM and 9440 nM, respectively. For the molecule `CCCOc1ccc(-c2ccc(C(C(=O)OCC)n3cc4nc(-c5cccc(F)c5F)nc-4cn3)cn2)c(C(F)(F)F)c1` (stereo not drawn) [Compound 40, Ethyl [2-(2,3-difluorophenyl)-5H-imidazo[4,5-d]pyridazin-5-yl]{6-[4-(propyloxy)-2-(trifluoromethyl)phenyl]-3-pyridinyl}acetate], the 50% effective concentration (EC50) in experiment [1] (setting [3]) turned out to be 440 nM. `CCCOC(=O)C(c1ccc(-c2ccc(OCCC)cc2C(F)(F)F)nc1)n1cc2nc(-c3cccc(F)c3F)nc-2cn1` (stereo not drawn) [Compound 41, Propyl [2-(2,3-difluorophenyl)-5H-imidazo[4,5-d]pyridazin-5-yl]{6-[4-(propyloxy)-2-(trifluoromethyl)phenyl]-3-pyridinyl}acetate]: the EC50 in experiment [1] (setting [3]) was 2700 nM; in experiment [2] (setting [4]), 900 nM. For `CCCOc1ccc(-c2ccc(C(C(=O)OC(C)C)n3cc4nc(-c5cccc(F)c5F)nc-4cn3)cn2)c(C(F)(F)F)c1` (stereo not drawn) [Compound 42, 1-Methylethyl [2-(2,3-difluorophenyl)-5H-imidazo[4,5-d]pyridazin-5-yl]{6-[4-(propyloxy)-2-(trifluoromethyl)phenyl]-3-pyridinyl}acetate], the concentration giving a half-maximal response (EC50) in experiment [1] (setting [3]) was found to be 510 nM; in experiment [2] (setting [4]) it was 980 nM. In the case of `CCCOc1ccc(-c2ncc(C(C(=O)OC)n3cc4nc(-c5cccc(F)c5F)nc-4cn3)cn2)c(C(F)(F)F)c1` (stereo not drawn) [Compound 58, Methyl [2-(2,3-difluorophenyl)-5H-imidazo[4,5-d]pyridazin-5-yl]{2-[4-(propyloxy)-2-(trifluoromethyl)phenyl]-5-pyrimidinyl}acetate], the 50% effective concentration (EC50) was 270 nM in experiment [1] (setting [3]) and 2600 nM in experiment [2] (setting [4]).
